Measurements published in PMC8854719, “Phase 1A/1B dose-escalation and -expansion study to evaluate the safety, pharmacokinetics, food effects and antitumor activity of pamiparib in advanced solid tumours” (British Journal of Cancer, 2021).
Marks after values point to notes of the source that are not given here.

Assay: Safety and tolerability: adverse events, dose-limiting toxicities, MTD, RP2D (Phase 1A/1B)
Type: in vivo
Protocol: This was an open-label, Phase 1, dose-escalation/dose-expansion study, conducted across six study centres in Australia. The dose-escalation phase evaluated twice-daily (BID) and once-daily (QD) dosing, and the dose-expansion phase evaluated the BID RP2D from the dose-escalation phase and food effects (Fig. 1). The food-effects cohort comprised two sequences: fast followed by fed (sequence 1) and fed followed by fast (sequence 2). […] The decision to proceed to the next dose cohort was determined by the Safety Monitoring Committee and followed a modified 3 + 3 escalation scheme. […] When ≥2 DLTs occurred in the first 23 days of a dose level, the next lower dose level was declared the MTD. Safety was monitored and DLTs were assessed in all dose cohorts. […] The food-effects cohort investigated the effects of food on the PK of pamiparib in patients with advanced solid tumours.
The QD dosing regimen was added as an amendment to the protocol with the purpose of exploring the feasibility of a more convenient regimen.
Safety and tolerability were assessed throughout the study by monitoring adverse events (AEs), serious AEs, clinical laboratory measurements and physical examinations. Adverse events were categorised according to their severity (National Cancer Institute Common Terminology Criteria for Adverse Events v4.03) and relationship to the study treatment.

## C[C@]12CCCN1CC1=NNC(=O)c3cc(F)cc4[nH]c2c1c34 [pamiparib]
80 mg BID (n = 10)
  Ascites, AE of any grade: 1 (10.0) n (%)
  Back pain, AE of any grade: 0 (0.0) n (%)
  Constipation, AE of any grade: 4 (40.0) n (%)
  Cough, AE of any grade: 1 (10.0) n (%)
  Decreased appetite, AE of any grade: 2 (20.0) n (%)
  Diarrhoea, AE of any grade: 1 (10.0) n (%)
  Dose-limiting toxicity: 1 (10.0)^b n (%)
  Dyspnoea, AE of any grade: 0 (0.0) n (%)
  Fatigue, AE of any grade: 4 (40.0) n (%)
  Headache, AE of any grade: 0 (0.0) n (%)
  Hypoalbuminemia, AE of any grade: 0 (0.0) n (%)
  Hypomagnesemia, AE of any grade: 2 (20.0) n (%)
  Hypophosphatemia, AE of any grade: 0 (0.0) n (%)
  Increased AST, AE of any grade: 0 (0.0) n (%)
  Muscle spasms, AE of any grade: 1 (10.0) n (%)
  Nausea, AE of any grade: 8 (80.0) n (%)
  Neutropenia, AE of any grade: 3 (30.0) n (%)
  Non-cardiac chest pain, AE of any grade: 1 (10.0) n (%)
  Pain in extremity, AE of any grade: 0 (0.0) n (%)
  Peripheral sensory neuropathy, AE of any grade: 0 (0.0) n (%)
  Pleural effusion, AE of any grade: 0 (0.0) n (%)
  Pyrexia, AE of any grade: 1 (10.0) n (%)
  Treatment-emergent AE: 10 (100.0) n (%)
  Treatment-emergent AE: Grade 3 or higher: 4 (40.0) n (%)
  Treatment-emergent AE: Leading to death: 1 (10.0) n (%)
  Treatment-emergent AE: Leading to dose interruption: 5 (50.0) n (%)
  Treatment-emergent AE: Leading to dose modification: 5 (50.0) n (%)
  Treatment-emergent AE: Leading to dose reduction: 1 (10.0) n (%)
  Treatment-emergent AE: Leading to treatment discontinuation: 0 (0.0) n (%)
  Treatment-emergent AE: Serious: 3 (30.0) n (%)
  Treatment-related AE: 9 (90.0) n (%)
  Treatment-related AE: Grade 3 or higher: 3 (30.0) n (%)
  Treatment-related AE: Leading to death: 0 (0.0) n (%)
  Treatment-related AE: Leading to dose interruption: 5 (50.0) n (%)
  Treatment-related AE: Leading to dose modification: 5 (50.0) n (%)
  Treatment-related AE: Leading to dose reduction: 1 (10.0) n (%)
  Treatment-related AE: Leading to treatment discontinuation: 0 (0.0) n (%)
  Treatment-related AE: Serious: 1 (10.0) n (%)
  Upper respiratory tract infection, AE of any grade: 5 (50.0) n (%)
  Urinary tract infection, AE of any grade: 2 (20.0) n (%)
  Vomiting, AE of any grade: 2 (20.0) n (%)
80 mg BID, n = 1
  Dose-limiting toxicities observed (description): Grade 2 nausea
120 mg BID (n = 5)
  Abdominal pain, AE of any grade: 0 (0.0) n (%)
  Anaemia, AE of any grade: 3 (60.0) n (%)
  Ascites, AE of any grade: 0 (0.0) n (%)
  Back pain, AE of any grade: 1 (20.0) n (%)
  Constipation, AE of any grade: 0 (0.0) n (%)
  Cough, AE of any grade: 1 (20.0) n (%)
  Decreased appetite, AE of any grade: 2 (40.0) n (%)
  Diarrhoea, AE of any grade: 2 (40.0) n (%)
  Dose-limiting toxicity: 2 (40.0)^c n (%)
  Dyspnoea, AE of any grade: 0 (0.0) n (%)
  Fatigue, AE of any grade: 2 (40.0) n (%)
  Headache, AE of any grade: 0 (0.0) n (%)
  Hypoalbuminemia, AE of any grade: 0 (0.0) n (%)
  Hypomagnesemia, AE of any grade: 0 (0.0) n (%)
  Hypophosphatemia, AE of any grade: 1 (20.0) n (%)
  Increased AST, AE of any grade: 1 (20.0) n (%)
  Muscle spasms, AE of any grade: 0 (0.0) n (%)
  Nausea, AE of any grade: 4 (80.0) n (%)
  Neutropenia, AE of any grade: 1 (20.0) n (%)
  Non-cardiac chest pain, AE of any grade: 1 (20.0) n (%)
  Pain in extremity, AE of any grade: 1 (20.0) n (%)
  Peripheral sensory neuropathy, AE of any grade: 0 (0.0) n (%)
  Pleural effusion, AE of any grade: 1 (20.0) n (%)
